Data reported in patent publication US20100184810A1, “METHODS AND COMPOSITIONS RELATED TO RIBOSWITCHES THAT CONTROL ALTERNATIVE SPLICING” (Yale University, priority 2007, published 2010).
Read-outs that look alike come from different tables or passages of the source.

Key:
NMT1 riboswitch aptamer = assay: In-line probing of NMT1 RNA constructs (TPP binding); set-up: species or system N. crassa
Protocol: In-line probing of RNA constructs. 5′ 32P-labeled RNAs were incubated at 23° C. for 40 hours in 50 mM Tris-HCl (pH 8.3 at 25° C.), 20 mM MgCl2 and 100 mM KCl in the presence or absence of TPP as defined. Cleavage products were separated by denaturing 10% PAGE, visualized by PhosphorImager (GE Healthcare), and quantified using ImageQuant software. KD values were determined by plotting the normalized fraction of RNA cleaved versus the logarithm of ligand concentration used. […] The results for in-line probing of 197 NMT1 and 115 NMT1 are depicted in FIG. 8 and FIG. 9, the results for 261 NMT1 are depicted in FIG. 10 and the results for 273 NMT1 are depicted in FIG. 11. Alternative base pairing similar to that being examined in the 273 NMT1 construct is observed in other fungal TPP riboswitches located in NMT1 mRNAs (FIG. 12).

[1] = test system: thiA mRNA carrying a TPP aptamer; conditions: thiamine supplementation of growth medium; cited from earlier work
[2] = test system: FREQUENCY (FRQ) transcripts; conditions: 30 μM thiamine in minimal medium
Protocol: (§1) Reverse transcriptase-polymerase chain reaction (RT-PCR) analyses. Total RNA was isolated from mycelia using TRIzol® LS reagent (Invitrogen) according to the manufacturer's directions. 5 μg of total RNA was treated with RNase free DNase I (Promega) for 30 min at 37° C. cDNA was generated by reverse transcription with a polyT primer for 1 hr at 42° C. using SuperScript™ II Reverse Transcriptase (Invitrogen) according to the manufacturer's directions. To exclude the possibility of amplification products originating from contamination with genomic DNA, control reactions using RNA preparations before RT were performed and, for NMT1, a reverse primer spanning an exon-exon border in the coding region was used.
Reverse transcriptase-polymerase chain reaction (RT-PCR) analyses. Total RNA was isolated from mycelia using TRIzol® LS reagent (Invitrogen) according to the manufacturer's directions. 5 μg of total RNA was treated with RNase free DNase I (Promega) for 30 min at 37° C. cDNA was generated by reverse transcription with a polyT primer for 1 hr at 42° C. using SuperScript™ II Reverse Transcriptase (Invitrogen) according to the manufacturer's directions. […]

NMT1 precursor mRNA = test system: NMT1 precursor mRNA
Protocol: (§2) RNA Analyses. RT-PCR analyses were conducted using RNA from untransformed N. crassa inoculated into 100 ml of Vogel's minimal medium supplemented with 0.5 mg ml-1 L-histidine. Cultures were grown at 30° C. with shaking at 150 rpm for 24 h either in the absence or presence of supplemented 30 μM thiamine. The cDNA was used as a template for PCR amplification of the 5′ regions of the three genes using primers and methods as described in Supplementary Information. All splicing products were confirmed by cloning and sequencing.
as §1
as §1, with “used. […] For sequence identification all amplification products were cloned and confirmed by sequencing several independent clones.” for “used.”
(§3) A specific primer combination was used for every gene with one primer binding to the annotated 5′ end of the transcript and a second primer binding immediately downstream of the riboswitch-containing intron. For the NMT1 gene, the primers used for PCR were DNA37 and DNA38 (FIG. 14), corresponding to the annotated 5′ end of the NMT1 mRNA and a region approximately 50 nucleotides downstream of the TPP riboswitch-containing intron, respectively. For the THI4 (CyPBP37) gene, the primers used were DNA39 and DNA40, corresponding to the 5′ end of the mRNA and a region approximately 125 nucleotides downstream of the TPP riboswitch-containing intron, respectively.

THI4 precursor mRNA = conditions: 30 μM thiamine in growth medium, 24 h
Protocol: as §2, §1
as §1, with “used. […] For sequence identification all amplification products were cloned and confirmed by sequencing several independent clones.” for “used.”
as §3

[3] = test system: TPP riboswitch in the N. crassa NCU01977.1 mRNA; conditions: 30 μM thiamine, 24 h
Protocol: LUC activity was normalized to the value measured at t=0 h.
Luciferase reporter gene assays. Mycelia from N. crassa transformed with LUC reporter constructs were isolated by filtration and approximately 100 mg of tissue was ground to a fine powder. After addition of 100 gl 1× Passive Lysis Buffer (Promega), the samples were vigorously mixed and incubated on ice for 30 min followed by centrifugation for 15 minutes at 13,000 g. Luciferase activity was determined for the resulting supernatant using the Luciferase Assay System (Promega) and a plate-reading luminometer (Wallac). Luciferase activity was normalized over total protein concentration of the extract as determined by Bradford Protein Assay (BioRad) and finally expressed relative to a reference construct.
(§4) Luciferase reporter gene assays. Mycelia from N. crassa transformed with LUC reporter constructs were isolated by filtration and approximately 100 mg of tissue was ground to a fine powder. […] Luciferase activity was determined for the resulting supernatant using the Luciferase Assay System (Promega) and a plate-reading luminometer (Wallac). Luciferase activity was normalized over total protein concentration of the extract as determined by Bradford Protein Assay (BioRad) and finally expressed relative to a reference construct.

[4] = 30 μM thiamine added at t=0 to culture grown in thiamine-free medium

Protocol for NMT1 TPP riboswitch: Reporter Gene Assays. Transformation of N. crassa was conducted using electroporation of freshly suspended macroconidia and insertion of the target gene was verified by PCR with insert specific primers from genomic DNA. Transcription of luciferase reporter constructs was constitutively driven by the N. crassa beta-tubulin (BTUB) promoter inserted upstream of the NMT1 5′ UTR. […] Samples were isolated and assayed for luciferase activity as described below.
as §4
Luciferase reporter gene assays. […] Luciferase activity was determined for the resulting supernatant using the Luciferase Assay System (Promega) and a plate-reading luminometer (Wallac). Luciferase activity was normalized over total protein concentration of the extract as determined by Bradford Protein Assay (BioRad) and finally expressed relative to a reference construct.

SMILES | Kd (NMT1 riboswitch aptamer; both constructs (197 NMT1 and 115 NMT1), in-line probing, 23° C., 40 hours, 20 mM MgCl2, read-out: apparent dissociation constant (KD)) | structural modulation of nucleotides at the branch site (NMT1 riboswitch aptamer; in-line probing of 261 NMT1 RNA, 10 μM TPP) | structural modulation at the second 5′ splice site (NMT1 riboswitch aptamer; in-line probing of 273 NMT1 RNA, 10 μM TPP) | thiA gene expression [1] | LUC expression, constructs I-2R and I-3R (TPP riboswitch absent) (NMT1 TPP riboswitch; 30 μM thiamine in the medium) | LUC reporter expression, wild-type (WT) NMT1 construct (NMT1 TPP riboswitch; grown overnight in medium supplemented with 30 μM thiamine) | effect on splicing of an RNA that does not carry the TPP riboswitch (FRQ) [2] | effect on splicing of an RNA that does not carry the TPP riboswitch (FRQ) ([2]; listed as Thiamine) | NMT1 transcript types within four hours after thiamine supplementation (NMT1 precursor mRNA; [4]) | NMT1 transcript types within the first hour after thiamine supplementation (NMT1 precursor mRNA; [4]) | effect on splicing of NMT1 precursor mRNA (NMT1 precursor mRNA; 30 μM thiamine in growth medium, 24 h) | effect on splicing of THI4 precursor mRNA (THI4 precursor mRNA) | LUC expression, NCU01977.1 reporter fusion construct [3]
Cc1ncc(C[n+]2csc(CCO[P@](=O)(O)OP(=O)(O)O)c2C)c(N)n1 [TPP, thiamine pyrophosphate] | ~0.3 nM | more structured | more flexible structure | – | – | – | – | – | – | – | – | – | –
Cc1ncc(C[n+]2csc(CCO)c2C)c(N)n1 [thiamine] | – | – | – | reduced gene expression | unchanged | Substantial repression | do not change in number relative to each other | does not affect splicing | I-3 is almost completely replaced by I-2 and I-1 | the splicing product I-2 and the unspliced NMT1 precursor RNA I-1 appear | causes alternative splicing | causes alternative splicing | an increase in LUC expression
